This test has as its target α2β1 integrin (Homo sapiens, UniProt P05556+P17301). Nature of the test: Cell adhesion assay. Format: cell-based. To be noted: for Emax: read-out: Emax in cell adhesion assay.
Setting [1] is: read-out: EC50 in cell adhesion assay.

Emax and EC50 data for 48 compounds are collected here from patent publication US20080255169A1 (priority 2004, published 2008).

Structures are written as SMILES. Read-outs that look alike come from different tables or passages of the source.

α2β1 integrin, sequence (P17301 30-1181): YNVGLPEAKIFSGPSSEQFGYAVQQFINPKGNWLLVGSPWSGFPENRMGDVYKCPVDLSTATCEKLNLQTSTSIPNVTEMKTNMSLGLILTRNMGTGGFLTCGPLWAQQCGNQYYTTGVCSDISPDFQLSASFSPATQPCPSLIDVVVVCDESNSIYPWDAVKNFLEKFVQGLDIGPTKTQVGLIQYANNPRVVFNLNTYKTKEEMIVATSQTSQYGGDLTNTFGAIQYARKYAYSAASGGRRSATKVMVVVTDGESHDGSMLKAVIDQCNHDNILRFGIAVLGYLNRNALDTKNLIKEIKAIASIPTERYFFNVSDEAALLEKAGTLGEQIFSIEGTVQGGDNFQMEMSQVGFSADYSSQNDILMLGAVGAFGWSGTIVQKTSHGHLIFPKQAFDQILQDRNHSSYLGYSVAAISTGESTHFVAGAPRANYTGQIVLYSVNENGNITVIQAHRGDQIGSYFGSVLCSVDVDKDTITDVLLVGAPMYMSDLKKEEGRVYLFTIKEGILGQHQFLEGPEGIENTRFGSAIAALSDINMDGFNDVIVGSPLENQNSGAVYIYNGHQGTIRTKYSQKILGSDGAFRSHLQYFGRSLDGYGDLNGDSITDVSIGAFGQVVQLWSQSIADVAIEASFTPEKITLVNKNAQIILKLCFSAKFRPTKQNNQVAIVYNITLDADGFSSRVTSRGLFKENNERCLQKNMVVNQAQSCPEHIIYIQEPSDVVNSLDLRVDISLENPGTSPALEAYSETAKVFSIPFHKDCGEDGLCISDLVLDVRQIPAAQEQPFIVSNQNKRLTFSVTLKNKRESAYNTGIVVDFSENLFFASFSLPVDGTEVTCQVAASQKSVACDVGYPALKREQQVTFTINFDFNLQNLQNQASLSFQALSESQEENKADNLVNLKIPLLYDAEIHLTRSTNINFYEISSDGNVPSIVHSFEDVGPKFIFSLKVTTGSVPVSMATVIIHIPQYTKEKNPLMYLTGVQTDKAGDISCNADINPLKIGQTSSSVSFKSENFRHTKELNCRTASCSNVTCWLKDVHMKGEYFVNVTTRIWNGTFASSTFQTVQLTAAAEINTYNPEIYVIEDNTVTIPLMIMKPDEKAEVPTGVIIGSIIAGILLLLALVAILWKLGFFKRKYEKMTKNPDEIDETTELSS
α2β1 integrin, sequence (P05556 21-798 partner): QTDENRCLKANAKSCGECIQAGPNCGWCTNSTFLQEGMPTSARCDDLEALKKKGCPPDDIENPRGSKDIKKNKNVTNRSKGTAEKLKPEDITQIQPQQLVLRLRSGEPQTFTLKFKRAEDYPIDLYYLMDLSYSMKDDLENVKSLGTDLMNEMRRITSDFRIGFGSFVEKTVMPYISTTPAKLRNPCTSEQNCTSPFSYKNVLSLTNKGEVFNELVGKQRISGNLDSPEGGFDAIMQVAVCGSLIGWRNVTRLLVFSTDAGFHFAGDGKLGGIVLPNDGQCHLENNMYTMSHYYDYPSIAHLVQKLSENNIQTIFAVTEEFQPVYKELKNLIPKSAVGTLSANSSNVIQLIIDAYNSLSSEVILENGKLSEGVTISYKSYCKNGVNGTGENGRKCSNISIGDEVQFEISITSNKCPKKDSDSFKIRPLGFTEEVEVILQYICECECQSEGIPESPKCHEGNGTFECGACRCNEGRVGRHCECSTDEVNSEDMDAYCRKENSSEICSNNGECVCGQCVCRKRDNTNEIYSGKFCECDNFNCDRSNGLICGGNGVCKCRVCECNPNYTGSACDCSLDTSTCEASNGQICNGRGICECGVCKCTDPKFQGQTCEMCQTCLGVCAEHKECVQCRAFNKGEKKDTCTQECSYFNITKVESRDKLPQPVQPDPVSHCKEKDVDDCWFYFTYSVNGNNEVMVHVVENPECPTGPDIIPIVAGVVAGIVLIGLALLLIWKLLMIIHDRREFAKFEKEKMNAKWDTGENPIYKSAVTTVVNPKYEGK

Take `Cc1cc(C)nc(N(C)c2ccc(NS(=O)(=O)c3ccc(Cl)cc3Cl)cc2)n1` [Compound 50, 2,4-dichloro-N-{4-[(4,6-dimethylpyrimidin-2-yl)(methyl)amino]phenyl}benzenesulphonamide]: the Emax (usually the size of the effect at its maximum, as opposed to the concentration needed) (concentration not given) came out at 60%. Besides, the EC50 (commonly the concentration at which the effect is half-maximal) under setting [1] came out at 17 µM.

As for `CSc1nc2ccc(NS(=O)(=O)c3ccc(Cl)cc3Cl)cc2s1` [Compound 132], the Emax (concentration not given) turned out to be 90%. Further, under setting [1], the EC50 worked out at 40 µM.

On to `O=S(=O)(Nc1ccc2[nH]ccc2c1)c1ccc(Cl)cc1Cl` [Compound 134, 2,4-dichloro-N-(1H-indol-5-yl)-benzenesulfonamide], for which the Emax (concentration not given) turned out to be 40%. Further, the EC50 under setting [1] was determined as 10 µM.

Take `O=S(=O)(Nc1ccc2ncsc2c1)c1cccc(Br)c1` [Compound 139, N-benzolthiazol-6-yl-3-bromo-benzenesulfonamide]: under “concentration not given”, the maximum response (Emax) came out at 75%. For the same compound, the EC50 under setting [1] turned out to be 46 µM.

As to `COc1ccc(-c2cccc(S(=O)(=O)Nc3ccc(N(C)C)cc3)c2)cc1OC` [Compound 142, [4-(3′,4′-dimethoxy-biphenyl-3-sulfonylamino)-phenyl]-dimethylammonium; chloride], the Emax (concentration not given) came to 77%. The EC50 under setting [1] came out at 20 µM.

For `O=S(=O)(Nc1ccc(-n2cccc2)cc1)c1ccc(Cl)cc1Cl` [Compound 163, 2,4-dichloro-N-(4-pyrrol-1-yl-phenyl)-benzenesulfonamide], the Emax at 50 µM was determined as 66%. For the same compound, the EC50 under setting [1] came out at 32 µM.

In turn, `COc1cc(OC)nc(-c2ccc(NS(=O)(=O)c3ccc(Cl)cc3Cl)cc2)n1` [Compound 164, 2,4-dichloro-N-[4-(4,6-dimethoxy-pyrimidin-2-yl)-phenyl]-benzenesulfonamide] displayed an Emax at 50 µM of 85%. In addition, the EC50 under setting [1] was 21 µM.

In the case of `O=S(=O)(Nc1ccc(Nc2nc(Cl)nc(Cl)c2Cl)cc1)c1ccc(Cl)cc1` [Compound 170], the Emax at 40 µM was found to be 85%. The EC50 under setting [1] was 24 µM.

As for `O=S(=O)(Nc1ccc(-n2cnc(Cl)c2Cl)cc1)c1ccc2ccccc2c1` [Compound 171], the Emax (concentration not given) worked out at 79%. Moreover, the EC50 under setting [1] amounted to 20 µM.

For `CC(C)(C)c1cc2cc(NS(=O)(=O)c3ccc(Cl)cc3)ccc2[nH]1` [Compound 173], the Emax at 40 µM came to 59%. Moreover, the EC50 under setting [1] worked out at 35 µM.

`Cc1cc(C)nc(Nc2ccc(NS(=O)(=O)c3ccc(Cl)cc3Cl)cc2)n1` [Compound 182]: where the note is “concentration not given”, the Emax worked out at 77%. For the same compound, the EC50 under setting [1] came to 25 µM.

Consider `O=S(=O)(Nc1ccc2c(c1)OCO2)c1cccc(-c2ccc(F)cc2)c1` [Compound 186, 4′-fluoro-biphenyl-3-sulfonic acid benzo[1,3]dioxol-5-yl-amide], for which, where the note is “concentration not given”, the Emax is 91%. Besides, the EC50 under setting [1] was 19 µM.

Regarding `Cc1nc2ccc(NS(=O)(=O)c3cccc(-c4ccc(F)cc4)c3)cc2o1` [Compound 187, 4′-fluoro-biphenyl-3-sulfonic acid (2-methyl-benzooxazol-6-yl)-amide], where the note is “concentration not given”, the Emax is 87%. Also, the 50% effective concentration (EC50) under setting [1] stood at 18 µM.

Consider `Cc1nc2cc(NS(=O)(=O)c3cccc(-c4ccc(F)cc4)c3)ccc2s1` [Compound 188, 4′-fluoro-biphenyl-3-sulfonic acid (2-methyl-benzothiazol-5-yl)-amide], for which the Emax (concentration not given) came to 81%. The EC50 under setting [1] was found to be 36 µM.

As for `O=S(=O)(Nc1ccc2ncsc2c1)c1cccc(-c2ccc(F)cc2)c1` [Compound 189, 4′-fluoro-biphenyl-3-sulfonic acid benzothiazol-6-ylamide], the Emax (concentration not given) came out at 76%.

As to `Cc1nc2cc(NS(=O)(=O)c3cccc(-c4ccc(F)cc4)c3)ccc2o1` [Compound 190, 4′-fluoro-biphenyl-3-sulfonic acid (2-methyl-benzooxazol-5-yl)-amide], the Emax (concentration not given) turned out to be 76%. Moreover, under setting [1], the EC50 came out at 25 µM.

Take `CN(C)c1ccc(NS(=O)(=O)c2cc(Br)c(F)cc2F)cc1` [Compound 192, 5-bromo-N-[4-(dimethylamino)phenyl]-2,4-difluoro benzene sulfonamide]: the Emax (concentration not given) amounted to 75%. Besides, under setting [1], the EC50 is 39 µM.

Turning to `Cc1nc2ccc(NS(=O)(=O)c3cccc(Br)c3)cc2s1` [Compound 195], the Emax (concentration not given) stood at 60%. Under setting [1], the EC50 turned out to be 49 µM.

For `Cc1cc2cc(NS(=O)(=O)c3cccc(Br)c3)ccc2[nH]1` [Compound 197, 3-bromo-N-(2-methyl-1H-indol-5-yl)-benzenesulfonamide], the Emax (concentration not given) was 74%.

Take `Cc1cc(C)nc(Nc2ccc(NS(=O)(=O)c3cccc(-c4ccc(F)cc4)c3)cc2)n1` [Compound 201]: the Emax at 50 µM came to 64%. Besides, under setting [1], the EC50 was 36 µM.

For `CN(C)c1ccc(NS(=O)(=O)c2cc(-c3ccc(F)cc3)c(F)cc2F)cc1` [Compound 202], under “concentration not given”, the maximum response (Emax) was 91%. The EC50 under setting [1] was found to be 27 µM.

Take `CN(C)c1ccc(NS(=O)(=O)c2cccc(-c3cccc(F)c3)c2)cc1` [Compound 203]: the maximal response (Emax) (concentration not given) worked out at 86%. Also, the EC50 under setting [1] was 19 µM.

Regarding `COc1cccc(-c2cccc(S(=O)(=O)Nc3ccc(N(C)C)cc3)c2)c1` [Compound 204], the Emax (concentration not given) stood at 63%. The EC50 under setting [1] was roughly 25 µM.

Compound `CN(C)c1ccc(NS(=O)(=O)c2cccc(-c3cccc(O)c3)c2)cc1` [Compound 205] displayed an Emax at 50 µM of 84%. Moreover, under setting [1], the EC50 is 20 µM.

For the compound `Cc1cc2cc(N(C)S(=O)(=O)c3cccc(Br)c3)ccc2[nH]1` [Compound 209], the Emax at 50 µM is 64%. The EC50 under setting [1] is 35 µM.

`Cc1ccc(C)n1-c1ccc(NS(=O)(=O)c2ccc(Cl)cc2Cl)cc1` [Compound 213] showed an Emax at 50 µM of 71%. For the same compound, under setting [1], the EC50 was determined as 25 µM.

With `CN(C)c1ccc(N(C)S(=O)(=O)c2ccc(Cl)cc2Cl)cc1` [Compound 223, 2,4-dichloro-N-[4-(dimethylamino)phenyl]-N-methyl benzenesulfonamide], the Emax (concentration not given) turned out to be 82%. Further, the EC50 under setting [1] stood at 13 µM.

`Cc1cc2cc(NS(=O)(=O)c3cccc(C(F)(F)F)c3)ccc2[nH]1` [Compound 230] returned an Emax at 50 µM of 76%. Also, the half-maximal effective concentration (EC50) under setting [1] was greater than 30 µM.

`Cc1cc2cc(NS(=O)(=O)c3ccc4oc(=O)ccc4c3)ccc2[nH]1` [Compound 234]: the Emax (concentration not given) came out at 85%. Further, the EC50 under setting [1] stood at 35 µM.

Regarding `COc1cc(OC)nc(-c2ccc(NS(=O)(=O)c3cccc(-c4ccc(F)cc4)c3)cc2)n1` [Compound 235], the Emax (concentration not given) came to 85%. The EC50 under setting [1] turned out to be 20 µM.

As for `COc1ccc(NS(=O)(=O)c2cccc(-c3ccc(F)cc3)c2)cc1` [Compound 250], the Emax (concentration not given) turned out to be 89%. Besides, the EC50 under setting [1] was 31 µM.

In turn, `COc1cc(OC)nc(-c2ccc(NS(=O)(=O)c3ccc(Cl)c(Cl)c3)cc2)n1` [Compound 255] yielded a maximal response (Emax) at 50 µM of 88%. For the same compound, the EC50 under setting [1] was determined as 17 µM.

On to `Cc1cc2c(n1-c1ccc(NS(=O)(=O)c3ccc(-c4cnco4)s3)cc1)CC(C)(C)CC2=O` [Compound 258], for which, where the note is “concentration not given”, the Emax was found to be 66%. Moreover, under setting [1], the EC50 came out at 40 µM.

With `CN(C)c1ccc(NS(=O)(=O)c2cccc(-c3ccc(F)c(F)c3)c2)cc1` [Compound 263], the Emax was determined as 88%. For the setting “EC50 in cell adhesion assay”, this compound had an EC50 of 26 µM.

Consider `COc1cc(OC)nc(-c2ccc(NS(=O)(=O)c3ccc4ccccc4c3)cc2)n1` [Compound 266], for which the Emax (concentration not given) came out at 70%. The 50% effective concentration (EC50) under setting [1] came out at 18 µM.

For the compound `Cc1cc2c(n1-c1ccc(NS(=O)(=O)c3ccc(Cl)c(Cl)c3)cc1)CC(C)(C)CC2=O` [Compound 269], for the setting “concentration not given”, the Emax stood at 64%. Moreover, the EC50 under setting [1] was 19 µM.

`CN(C)c1ccc(NS(=O)(=O)c2cccc(-c3cccc(C#N)c3)c2)cc1` [Compound 275]: the Emax (concentration not given) stood at 57%. Also, the EC50 under setting [1] is 26 µM.

For the compound `CN(C)c1ccc(N(C)S(=O)(=O)c2cccc(-c3ccc(F)cc3)c2)cc1` [Compound 282, 4′-fluoro-biphenyl-3-sulfonic acid (4-dimethylaminophenyl)-methylamide], the Emax at 50 µM worked out at 59%. In addition, under setting [1], the concentration for a half-maximal effect (EC50) was determined as 7 µM.

`Cc1cc2c(n1-c1ccc(NS(=O)(=O)c3ccc(C(F)(F)F)cc3Cl)cc1)CC(C)(C)CC2=O` [Compound 283, 2-chloro-4-trifluoromethyl-N-[4-(2,6,6-trimethyl-4-oxo-4,5,-6,7-tetrahydro-indol-1-yl)-phenyl]-benzenesulfonamide]: the Emax (concentration not given) was 63%. For the same compound, the EC50 under setting [1] was 23 µM.

For `Cn1ccc2ccc(NS(=O)(=O)c3cccc(-c4ccc(F)cc4)c3)cc21` [Compound 284, 4′-fluoro-biphenyl-3-sulfonic acid (1-methyl-1H-indol-6-yl)-amide], the maximum response (Emax) (concentration not given) was 69%. Under setting [1], the EC50 is roughly 30 µM.

`COc1cc(OC)nc(-c2ccc(NS(=O)(=O)c3ccc(-c4cnco4)s3)cc2)n1` [Compound 286, 5-oxazol-5-yl-thiophene-2-sulfonic acid [4-(4,6-dimethoxypyrimidin-2-yl)-phenyl]-amide]: the Emax (concentration not given) was 72%. Besides, under setting [1], the EC50 came out at 37 µM.

As to `CC(C)(C)c1cc2cc(NS(=O)(=O)c3cccc(-c4ccc(F)cc4)c3)ccc2[nH]1` [Compound 291], the Emax (concentration not given) is 50%. The EC50 under setting [1] was 32 µM.

Take `Cc1nc2cc(N(C)S(=O)(=O)c3cccc(-c4ccc(F)cc4)c3)ccc2o1` [Compound 295]: the maximum response (Emax) (concentration not given) was determined as 56%. Further, the EC50 under setting [1] worked out at 29 µM.

As to `O=S(=O)(Nc1ccc(-n2cccn2)cc1)c1cccc(-c2ccc(F)cc2)c1` [Compound 297], under “concentration not given”, the Emax amounted to 80%. Also, the EC50 under setting [1] was 26 µM.

With `O=S(=O)(Nc1ccc(-n2cnc(Cl)c2Cl)cc1)c1cccc(-c2ccc(F)cc2)c1` [Compound 299], the Emax (concentration not given) came to 79%. Under setting [1], the EC50 worked out at 9.6 µM.

For the compound `O=S(=O)(Nc1ccc(-n2ccnc2)cc1)c1cccc(-c2ccc(F)cc2)c1` [Compound 300], where the note is “concentration not given”, the maximum response (Emax) was found to be 50%. Moreover, the EC50 under setting [1] is 45 µM.

As to `Cc1cc(C)nc(N(C)c2ccc(N(C)S(=O)(=O)c3ccc(Cl)cc3Cl)cc2)n1` [Compound 302], the Emax (concentration not given) is 57%. For the same compound, under setting [1], the concentration for a half-maximal effect (EC50) amounted to 24 µM.

`CN(C)c1ccc(NS(=O)(=O)c2ccc(-c3ccc(F)cc3)s2)cc1` [Compound 306] came in with a maximum response (Emax) at 50 µM of 67%. In addition, under setting [1], the EC50 came to 24 µM.
